The source of these data is patent US11702417B2, “Compounds for improving mRNA splicing” (The General Hospital Corporation, priority 2015, dated 2023).

Where two headings read alike, the source gives them in different places.

Data set [1] is described as follows: In vivo FD mouse model: presence of compound in plasma and brain. The note with it: oral gavage eight days, 1 hour after last dose. As to the method: Compound (100) was administered by oral gavage for eight days at 60 mg/kg/day, 30 mg/kg/day and 10 mg/kg/day to the mouse transgenic familial dysautonomia (FD) model. Every dosing group and the control group (vehicle) consisted of 6 mice. The mice were given food and water ad libitum, and changes in body weights were monitored on a daily basis. On the eighth day the mice were dosed for the last time and after 1 hour the mice were sacrificed and dissected. Plasma, liver, kidney, heart and brain were collected.

Data set [2] relates to FD (familial dysautomonia) IKBKAP minigene, exon 20 inclusion, in HEK293T cells. In words: Primary splicing assay (FD IKBKAP minigene, Firefly/Renilla luciferase reporter in HEK293T). The note with it: for EC (maximum kinetin efficacy) / Emax: Homo sapiens, HEK-293T; for EC (maximum kinetin efficacy): HEK293T, read-out: ECk (compound concentration at which the maximum kinetin efficacy (200 μM) is reached). In kind it is cell-based, human. (A reporter such as luciferase makes a cellular process visible.)

Data set [3] relates to IKBKAP splicing (exon 20 inclusion) in FD fibroblasts GM04663. Nature of the data set: Secondary assay: IKBKAP splicing analysis by RT-PCR in FD fibroblasts GM04663. Format: cell-based. The note with it: Homo sapiens, FD fibroblasts GM04663, 24 hours of treatment, read-out: % exon Inclusion Normalized.
For data set [4], the system named is normal IKBKAP mRNA in peripheral blood. The following applies: human patients and carriers of familial dysautonomia, preliminary testing; cited from earlier work.
The test system of data set [5] is IKAP protein. Nature of the data set: In vivo FD mouse model: IKAP protein in liver by western blot. The note with it: 400 mg/kg/day. As to the method:
Six transgenic mice were fed daily with 10% DMA/45% PEG 300/12% EtOH/33% sterile water solution for the same duration. The mice were given food and water ad libitum, and changes in body weights were monitored on a daily basis. On the eighth day the mice were dosed for the last time and after 1 hour were sacrificed and dissected. Plasma, lungs, muscle, liver, heart, brain, kidney, sciatic nerve, and trigeminal nerve were collected. Splicing was evaluating by RT-PCT and IKAP protein was evaluated using Western Blotting. Protein extracts were obtained by homogenizing liver or cell pellets in RIPA buffer (Tris-HCl 50 mM, pH 7.4; NaCl 150 mM; NP-40 1%; Sodium deoxycholate 0.5%; SDS 0.1%) containing protease inhibitor cocktail (Sigma), DTT (100 μM) and PMSF (100 μM). Insoluble debris were discarded after centrifugation and protein concentration was determined using Pierce® […] BCA Protein Assay Kit (Thermo Scientific). 50 μg of protein was separated on NuPage 4-12% Bis-Tris Gel (Invitrogen) and transferred into nitrocellulose membrane (Thermo Scientific). […]
(In general: A western blot detects proteins with antibodies after separation by electrophoresis.)

Data set [6] has as its system IKBKAP exon 20 inclusion. In words: In vivo familial dysautonomia mouse model: splicing analysis in tissues. The note with it: for inclusion of exon 20 in C57BI6-FD mouse tissues (FIGS. 1A-6): 10, 30 and 60 mg/kg/day, 8 days. The protocol:
[…] Every dosing group and the control group (vehicle) consisted of 6 mice. The mice were given food and water ad libitum, and changes in body weights were monitored on a daily basis. On the eighth day the mice were dosed for the last time and after 1 hour the mice were sacrificed and dissected. Plasma, liver, kidney, heart and brain were collected.
The following solutions were prepared daily: Compound (230) in 10% DMA/45% PEG 300/12% EtOH/33% sterile water; and Compound (270) in 10% DMA/45% PEG 300/12% EtOH/33% sterile water.
[…] Six transgenic mice were fed daily with 10% DMA/45% PEG 300/12% EtOH/33% sterile water solution for the same duration. The mice were given food and water ad libitum, and changes in body weights were monitored on a daily basis. On the eighth day the mice were dosed for the last time and after 1 hour were sacrificed and dissected. Plasma, lungs, muscle, liver, heart, brain, kidney, sciatic nerve, and trigeminal nerve were collected. Splicing was evaluating by RT-PCT and IKAP protein was evaluated using Western Blotting.

Data set [7] deals with IKBKAP splicing. The following applies: mice, oral, 400 mg/kg/day for 7 days; cited from earlier work.
Setting [8] is: Firefly/Renilla ratio, 24 hours of treatment.
Setting [9] is: max efficacy in Primary Assay, Firefly/Renilla ratio, kinetin and DMSO as positive and negative controls, 24 hours of treatment, read-out: Emax (%).

Consider `Clc1nc(NCc2ccncc2)c2cc[nH]c2n1` [(100)], for which, in data set [1], the “presence of compound in brain” value was “evident in the brain” and the “presence of compound in plasma” value was “presence of (100) in the plasma”. In addition, the EC (maximum kinetin efficacy) in data set [2] (setting [8]) was found to be 2.18 µM. Moreover, the Emax (as a rule, the greatest response seen or fitted, relative to the assay's reference) in data set [2] (setting [9]) is 235%. In data set [3], the activation at 0.08 µM worked out at 22.6% and the activation at 0.8 µM is 62.1%.

Turning to `c1coc(CNc2ncnc3nc[nH]c23)c1` [kinetin, N^6-furfuryladenine, reference compound], in data set [4], the “normal IKBKAP mRNA in peripheral blood” value is recorded as “increased normal IKBKAP mRNA in peripheral blood”. Besides, in data set [5], the “level of the IKAP protein in liver” value is given as “no significant changes”. Moreover, the activation at 200 µM in data set [3] (200 μM (kinetin control)) is 100%. The splicing in kidney entry in data set [6] (400 mg/kg/day) is “no significant changes in splicing”. Moreover, in data set [6] (400 mg/kg/day, 8 days of treatment), the splicing in brain entry was “no significant change”. In addition, the “IKBKAP splicing in vivo in certain tissues, including the brain” value in data set [7] is listed as “improve IKBKAP splicing in vivo”.

As to `FC1(F)CC(COc2nc3c(NCc4nccs4)nc(Cl)nc3[nH]2)C1` [(362)], in data set [2] (setting [8]), the EC (maximum kinetin efficacy) was 0.22 µM. For the same compound, in data set [2] (setting [9]), the Emax was found to be 250%. In data set [3], the activation at 0.08 µM came out at 63.8% and the activation at 0.8 µM is 105%.

On to `Clc1nc(NCc2nccs2)c2nc(OCc3cscn3)[nH]c2n1` [(348)], for which the EC (maximum kinetin efficacy) in data set [2] (setting [8]) amounted to 0.7 µM. In addition, in data set [2] (setting [9]), the Emax turned out to be 171%. Further, in data set [3], the activation at 0.08 µM came out at 49% and the activation at 0.8 µM came out at 102%.

For `FC(F)(F)COc1nc2c(NCc3nccs3)nc(Cl)nc2[nH]1` [(302)], the EC (maximum kinetin efficacy) in data set [2] (setting [8]) was determined as 1.42 µM. For the same compound, the maximum response (Emax) in data set [2] (setting [9]) was 176%. Besides, in data set [3], the activation at 0.08 µM is 23.3% and the activation at 0.8 µM is 90.8%.

On to `Clc1nc(NCc2cscn2)c2cc[nH]c2n1` [(372)], for which, in data set [2] (setting [8]), the EC (maximum kinetin efficacy) came to 3.71 µM. For the same compound, in data set [2] (setting [9]), the Emax was determined as 126%. Also, in data set [3], the activation at 0.08 µM was 13.4% and the activation at 0.8 µM is 48.7%.

As for `Clc1nc(NCc2nccs2)c2cc[nH]c2n1` [(107)], the Emax in data set [2] (max efficacy, Firefly only, footnote c: Renilla interference/Firefly only, read-out: Emax (%) Firefly only) came out at 184%. Moreover, the “ECk, Firefly only” value in data set [2] (Renilla interference/Firefly only (footnote c)) was found to be 4.58 µM⁻¹. Besides, in data set [3], the activation at 0.08 µM is 25.6% and the activation at 0.8 µM came out at 93.2%.

With `FC(F)COc1nc2c(NCc3nccs3)nc(Cl)nc2[nH]1` [(347)], the EC (maximum kinetin efficacy) in data set [2] (setting [8]) stood at 0.77 µM. For the same compound, in data set [2] (setting [9]), the Emax was found to be 186%. Besides, in data set [3], the activation at 0.08 µM turned out to be 18.3% and the activation at 0.8 µM is 72%.

For the compound `OCCOc1nc2c(NCc3ccco3)nc(Cl)nc2[nH]1` [(275)], in data set [2] (setting [8]), the EC (maximum kinetin efficacy) was found to be 0.75 µM. For the same compound, the Emax in data set [2] (setting [9]) came out at 230%. For the same compound, in data set [3], the activation at 0.08 µM came out at 37.2% and the activation at 0.8 µM worked out at 101%.

Consider `COCCOc1nc2c(NCc3ccncn3)nc(Cl)nc2[nH]1` [(319)], for which the EC (maximum kinetin efficacy) in data set [2] (setting [8]) stood at 1.56 µM. Moreover, the maximum response (Emax) in data set [2] (setting [9]) stood at 204%. For the same compound, in data set [3], the activation at 0.08 µM was 14.2% and the activation at 0.8 µM is 77.8%.

On to `COc1nc2c(NCc3nccs3)nc(Cl)nc2[nH]1` [(230)], for which the EC (maximum kinetin efficacy) in data set [2] (setting [8]) came out at 1.5 µM. Also, the Emax in data set [2] (setting [9]) worked out at 216%. Also, in data set [3], the activation at 0.08 µM is 22.3% and the activation at 0.8 µM amounted to 70%. Also, the “inclusion of exon 20 in C57BI6-FD mouse tissues (FIGS. 1A-6)” value in data set [6] is listed as “useful for improving inclusion of exon 20”.

For `Clc1nc(NCc2nccs2)c2nc(OCC3CCO3)[nH]c2n1` (stereo not shown) [(346)], the EC (maximum kinetin efficacy) in data set [2] (setting [8]) is 1.42 µM. The Emax in data set [2] (setting [9]) came to 181%. Further, in data set [3], the activation at 0.08 µM came out at 23.2% and the activation at 0.8 µM is 58.6%.

On to `CCOc1nc2c(NCc3ccncn3)nc(Cl)nc2[nH]1` [(320)], for which the EC (maximum kinetin efficacy) in data set [2] (setting [8]) was 0.52 µM. For the same compound, the Emax in data set [2] (setting [9]) came out at 208%. Also, in data set [3], the activation at 0.08 µM was 47.1% and the activation at 0.8 µM was 103%.

Take `Clc1nc(NCc2ccco2)c2nn[nH]c2n1` [(285)]: in data set [2] (setting [8]), the EC (maximum kinetin efficacy) worked out at 6.78 µM. Besides, the Emax in data set [2] (setting [9]) was found to be 115%. Also, in data set [3], the activation at 0.08 µM turned out to be 0.06% and the activation at 0.8 µM was 1.46%.

Turning to `FC(F)(F)COc1nc2c(NCc3ccco3)nc(Cl)nc2[nH]1` [(270)], the EC (maximum kinetin efficacy) in data set [2] (setting [8]) amounted to 0.59 µM. Besides, the maximal effect (Emax) in data set [2] (setting [9]) came to 218%. In data set [3], the activation at 0.08 µM was determined as 28.7% and the activation at 0.8 µM was found to be 101%. In addition, in data set [6], the “inclusion of exon 20 in C57BI6-FD mouse tissues (FIGS. 1A-6)” value is given as “useful for improving inclusion of exon 20”.

As for `CCCOc1nc2c(NCc3nccs3)nc(Cl)nc2[nH]1` [(271)], the EC (maximum kinetin efficacy) in data set [2] (setting [8]) is 0.29 µM. In addition, the Emax in data set [2] (setting [9]) was determined as 206%. Further, in data set [3], the activation at 0.08 µM was determined as 62.2% and the activation at 0.8 µM was 107%.

Turning to `Clc1nc(NCc2ccco2)c2nc(OC3COC3)[nH]c2n1` [(269)], in data set [2] (setting [8]), the EC (maximum kinetin efficacy) came to 1.39 µM. For the same compound, the Emax in data set [2] (setting [9]) was determined as 119%. Further, in data set [3], the activation at 0.08 µM was 34.8% and the activation at 0.8 µM turned out to be 102%.

As to `FCCn1ncc2c(NCc3ccco3)nc(Cl)nc21` [Example 12, 6-Chloro-1-(2-fluoroethyl)-N-(furan-2-ylmethyl)-1H-pyrazolo[3,4-d]pyrimidin-4-amine], the melting point (as a rule, the temperature, or range, at which the solid turns liquid) was in the range of 125 to 128 °C.

Regarding `CNc1nc2c(NCc3ccco3)nc(Cl)nc2[nH]1` [(113)], in data set [2] (setting [8]), the EC (maximum kinetin efficacy) is 5.17 µM. In addition, the maximal effect (Emax) in data set [2] (setting [9]) was determined as 132%.

Take `Clc1nc(NCc2ccco2)c2nc(-c3ccccc3)[nH]c2n1` [(93)]: the Emax in data set [2] (setting [9]) was determined as 63%.

Take `COc1nc2c(NCc3cncs3)nc(Cl)nc2[nH]1` [(376)]: the Emax in data set [2] (setting [9]) turned out to be 23.5%.

`CCCOc1nc2nc(Cl)nc(NCc3nccs3)c2n1C` [(335)]: in data set [2] (setting [9]), the Emax was 35%.

As to `COc1nc2c(NC(C)c3nccs3)nc(Cl)nc2[nH]1` (stereo not shown) [(370)], the Emax in data set [2] (setting [9]) was determined as 33%.

For the compound `FC(F)(F)CCOc1nc2c(NCc3nccs3)nc(Cl)nc2[nH]1` [(391)], the EC (maximum kinetin efficacy) in data set [2] (setting [8]) was determined as 1.02 µM. In addition, the Emax in data set [2] (setting [9]) is 193%.

Take `COCc1c[nH]c2nc(Cl)nc(NCc3ccco3)c12` [(158)]: the EC (maximum kinetin efficacy) in data set [2] (setting [8]) was 13.4 µM. The Emax in data set [2] (setting [9]) is 20%.

Consider `CNc1nc2c(NCc3ccncc3)nc(Cl)nc2[nH]1` [(244)], for which, in data set [2] (setting [8]), the EC (maximum kinetin efficacy) turned out to be 7.05 µM. In data set [2] (setting [9]), the Emax is 150%.

For `FC(F)COc1nc2c(NCc3ccncn3)nc(Cl)nc2[nH]1` [(349)], the EC (maximum kinetin efficacy) in data set [2] (setting [8]) is 0.29 µM. Also, in data set [2] (setting [9]), the Emax amounted to 227%. Further, in data set [3], the activation at 0.08 µM came to 27.1% and the activation at 0.8 µM is 95.3%.
